In patent US20140243348A1, “COMPOSITIONS AND METHODS FOR TREATING HERPES VIRUSES” (President and Fellows of Harvard College, priority 2011, published 2014):

Columns and labels:
wild type HSV-1 = test: HSV yield reduction assay (plaque assay) with HIV integrase inhibitors; type: cell-based; conditions: 100 μM; FIG. 6
Method: At 48 hours post infection, viral yield samples were harvested and the yield was determined by plaque assay. Values are presented as the percent yield remaining, relative to the DMSO vehicle control treatment.
Cells were infected with wild type HSV-1 at a multiplicity of infection of 0.01 plaque-forming units per cell and treated with the indicated concentration of the HIV integrase inhibitor specified. At 48 hours post infection, viral yield samples were harvested and the yield was determined by plaque assay. Values are presented as the percent yield remaining, relative to the DMSO vehicle control treatment.

HCMV UL89 = HCMV UL89 (Human cytomegalovirus, UniProt P16732); conditions: cited from earlier work
HSV-1 KOS virus = test: Screen of 118-D-24 derivatives on HSV-1 KOS replication in Hep2 cells; type: cell-based; conditions: 250 μM, MOI=0.01, 48 hours, FIG. 12
Method: To evaluate the effects of 118-D-24 derivatives on HSV replication, a panel of derivatives (Table 1) (Zhao, X. Z., 2008, J. Med. Chem., vol. 51, pages 251-259) were screened for their ability to inhibit HSV-1 KOS virus replication in Hep2 cells. Hep2 cells were plated in a 6-well plate and incubated overnight to reach confluency. The cells were then inoculated with HSV-1 KOS virus at MOI=0.01 for 1 hour. Following inoculation, the virus inoculum was replaced with DMEV medium containing 118-D-24 or a derivative of 118-D-24. After 48 hours, samples were harvested by adding an equal volume of 10% non-fat milk and immediately frozen at −80° C. Samples were freeze-thawed three times to rupture the cell membranes and allow the release of virus. Virus titers were determined by titration on Vero cells. The 100% yield represents the viral titer in samples without drug treatment. […] Hep2 cells or (FIG. 14A) or HFF cells (FIG. 14B) were infected with HSV-1 virus (KOS strain) at MOI of 0.01. Samples were then processed and percent yield remaining values were calculated. EC50 and EC90 values were calculated using nonlinear regression curve fit with a variable slope. GaraphPad Prism 5 software was used for all analyses. (FIG. 14C) Cytotoxicity of XZ45 on the viability of Hep2 cells during a 48-hour incubation period was evaluated using the Promega cell titer glo assay, as described by the manufacturer. The reported values are percent […] remaining relative to the […] from cells grown in media containing DMSO alone. CC50 value was determined as described above. FIGS. 14A and 14B show the effects of XZ45 on HSV-1 replication in Hep2 cells (14A) and normal human foreskin fibroblasts (14B) and the cytotoxicity of XZ45 in Hep2 cells is shown in FIG. 14C.

[1] = tested on: HSV-1 strain KOS, strain F; test: XZ45 viral yield assay, HSV-1; type: cell-based; conditions: Hep2 or HFF cells, 48 hours; FIG. 15
Method: (§1) Hep2 cells were infected with HSV-1 strain KOS, strain F, or HSV-2 strain G at MOI of 0.01. The infected cells were grown in media containing increasing concentrations of XZ45 or DMSO for 48 hours. Samples were harvested and viral yield was determined by plaque assay on Vero cells. The reported values are percent yield remaining relative to cells grown in media containing DMSO alone (FIG. 15A). Hep2 cells (FIG. 15B) or HFF cells (FIG. 15C) were infected with HSV-1 virus (KOS strain) at MOI of 10 or 0.01 or with human cytomegalovirus (HCMV) (FIG. 16). Samples were then processed and percent yield remaining values were calculated as describe above.

HSV-2 strain G = test: XZ45 viral yield assay, HSV-2; type: cell-based; conditions: Hep2 cells, MOI 0.01, 48 hours; FIG. 15A
Method: as §1

[2] = tested on: human cytomegalovirus (HCMV); test: XZ45 viral yield assay, HCMV; type: cell-based; conditions: FIG. 16
Method: as §1

HSV-1 KOS viral DNA = test: XZ45 viral DNA synthesis (real-time PCR) in Hep2 cells; type: cell-based; conditions: 10 μM XZ45, MOI=10, FIG. 17A
Method: (§2) Hep2 cells were infected with HSV-1 KOS at an MOI=10 in the presence or absence of 10 μM XZ45. Total DNA was harvested at the times indicated, and viral DNA levels in each sample were determined by real-time PCR and were normalized to the levels of cellular DNA. […] Hep2 cells were infected with HSV-1 KOS in the presence or absence of 10 μM XZ45. Lysates were prepared for immunoblotting at the indicated times. Polypeptides were resolved by SDS-PAGE, transferred to a PVDF membrane, and probed for representative immediate-early (ICP27), early (ICP8), and late (gC) gene products.

[3] = tested on: HSV-1 KOS late (gC) gene products; test: XZ45 viral gene expression by immunoblotting in Hep2 cells; type: cell-based; conditions: 10 μM XZ45, FIG. 17B
Method: as §2

ICP8 [4] = target: T1, ICP8 (Human herpesvirus 1, UniProt P17470); test: ssDNA binding by ICP8 (EMSA, ssDNA beads pull down, ssDNA-cellulose); conditions: three assays; FIG. 18A-18C
T1 sequence (P17470 whole entry): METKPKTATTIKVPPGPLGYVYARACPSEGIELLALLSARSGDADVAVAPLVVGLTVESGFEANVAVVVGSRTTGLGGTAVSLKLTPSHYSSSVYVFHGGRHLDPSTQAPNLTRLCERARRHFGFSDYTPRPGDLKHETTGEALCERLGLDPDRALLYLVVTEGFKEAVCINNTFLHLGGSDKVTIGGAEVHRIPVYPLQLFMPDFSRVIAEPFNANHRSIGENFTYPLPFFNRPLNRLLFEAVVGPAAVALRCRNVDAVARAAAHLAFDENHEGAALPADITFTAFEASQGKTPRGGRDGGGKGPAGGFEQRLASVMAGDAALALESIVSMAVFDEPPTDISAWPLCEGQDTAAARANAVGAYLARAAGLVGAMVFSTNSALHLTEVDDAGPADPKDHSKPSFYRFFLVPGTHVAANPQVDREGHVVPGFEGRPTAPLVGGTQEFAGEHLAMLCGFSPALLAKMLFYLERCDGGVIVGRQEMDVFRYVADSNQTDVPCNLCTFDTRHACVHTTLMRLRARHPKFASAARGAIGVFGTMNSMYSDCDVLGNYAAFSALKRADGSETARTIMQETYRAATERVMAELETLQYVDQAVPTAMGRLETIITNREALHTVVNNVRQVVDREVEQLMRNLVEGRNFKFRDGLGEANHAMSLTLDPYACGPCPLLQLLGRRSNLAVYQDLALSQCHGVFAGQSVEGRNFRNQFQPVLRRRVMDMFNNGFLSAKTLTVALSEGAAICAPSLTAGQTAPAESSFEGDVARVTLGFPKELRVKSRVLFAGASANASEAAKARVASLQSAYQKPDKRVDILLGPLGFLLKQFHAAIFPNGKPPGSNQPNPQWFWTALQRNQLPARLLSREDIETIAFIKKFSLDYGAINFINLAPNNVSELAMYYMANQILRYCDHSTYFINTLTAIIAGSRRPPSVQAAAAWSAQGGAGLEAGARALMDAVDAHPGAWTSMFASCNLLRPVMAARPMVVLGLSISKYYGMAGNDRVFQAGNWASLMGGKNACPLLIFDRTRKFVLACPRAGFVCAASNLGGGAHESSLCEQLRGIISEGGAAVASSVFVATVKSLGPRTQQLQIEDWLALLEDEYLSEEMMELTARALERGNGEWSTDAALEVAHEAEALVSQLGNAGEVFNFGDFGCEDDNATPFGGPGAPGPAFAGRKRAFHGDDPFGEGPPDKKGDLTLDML
Method: The effect of XZ45 on ssDNA binding by ICP8 was measured by EMSA assay with purified ICP8 protein using ^32P-labled polynucleotide ssDNA probe (FIG. 18A); ssDNA beads pull down assay (FIG. 18B), and ICP8 binding to ssDNA-cellulose (FIG. 18C).

HSV recombination = HSV recombination in Hep2 cells coinfected with 8LacZ and hr99; type: cell-based; conditions: 20 hours after infection, compared to PAA, FIG. 19
Method: To test the effect of XZ45 on HSV recombination during viral replication, 8LacZ (deletion of ul29) and hr99 (deletion of ul5) virus were used to coinfect Hep2 cells in the presence of XZ45 or PAA. At 20 hours after infection, samples were harvested and progeny virus were tittered on Vero cells and V529 cells to determine the viral titer of recombinated virus and total virus. The recombination rate reflects the ratio between the titer of recombinated virus and total virus.

ICP8 [5] = target: T1, ICP8; test: D-loop assay of ICP8 mediated recombination; type: biochemical; conditions: 0, 10, 20, or 40 μM XZ45; FIG. 20
Method: To further test the effect of XZ45 on ICP8 mediated recombination a D-loop assay was used. A double stranded DNA probe was mixed with a single stranded DNA oligonucleotide in the presence or absence of ICP8 with 0, 10, 20, or 40 μM XZ45. Following incubation, the reaction products were analyzed by electrophoresis through a native gel.

HCMV UL89, sequence (P16732 whole entry): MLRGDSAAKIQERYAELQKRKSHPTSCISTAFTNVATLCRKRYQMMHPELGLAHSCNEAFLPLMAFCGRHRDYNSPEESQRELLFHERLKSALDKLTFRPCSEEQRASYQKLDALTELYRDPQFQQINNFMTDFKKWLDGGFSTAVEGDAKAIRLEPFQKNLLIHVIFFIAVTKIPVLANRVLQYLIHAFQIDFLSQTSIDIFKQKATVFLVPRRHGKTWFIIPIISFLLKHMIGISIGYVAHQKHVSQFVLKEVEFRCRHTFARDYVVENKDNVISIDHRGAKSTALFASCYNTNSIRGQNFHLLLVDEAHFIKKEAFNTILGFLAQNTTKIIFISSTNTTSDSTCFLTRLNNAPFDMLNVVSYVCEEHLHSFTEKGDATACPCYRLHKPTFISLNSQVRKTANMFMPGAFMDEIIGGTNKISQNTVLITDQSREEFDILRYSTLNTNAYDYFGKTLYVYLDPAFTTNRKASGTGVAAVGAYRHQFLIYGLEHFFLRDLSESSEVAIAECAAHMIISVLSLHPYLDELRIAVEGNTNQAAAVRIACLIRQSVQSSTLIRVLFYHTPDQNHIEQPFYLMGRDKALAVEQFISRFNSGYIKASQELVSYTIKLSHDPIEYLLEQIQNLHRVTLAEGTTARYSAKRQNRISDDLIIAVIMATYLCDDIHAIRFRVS

Structure (SMILES): Cc1nnc(C(=O)NC(C)(C)c2nc(C(=O)NCc3ccc(F)cc3)c(O)c(=O)n2C)o1 [Raltegravir]
- reduction of HSV viral yield (wild type HSV-1): greater than 96%
- HCMV UL89 activity (HCMV UL89): inhibit HCMV UL89 activity

Structure (SMILES): O=C(NNC(=O)c1cccc(O)c1O)c1cccc(O)c1O [XZ15]
- viral yield (in words) (HSV-1 KOS virus): significant reductions in viral yield

Structure (SMILES): O=C(NNC(=O)c1cccc(O)c1O)c1ccccc1O [XZ45]
- viral yield (in words) (HSV-1 KOS virus): significant reductions in viral yield
- replication of HSV-1 [1]: inhibits the replication
- replication of HSV-2 (HSV-2 strain G): inhibits the replication
- replication of HCMV [2]: inhibits the replication
- viral DNA synthesis (HSV-1 KOS viral DNA): Inhibits Viral DNA Synthesis
- expression of the late gene (gC) products [3]: significantly inhibited
- ssDNA binding by ICP8 (ICP8 [4]): does not affect ssDNA binding
- HSV recombination (recombination rate) (HSV recombination): significantly inhibited HSV recombination
- ICP8 mediated formation of D-loops (ICP8 [5]): inhibited the ICP8 mediated formation of D-loops

Structure (SMILES): O=C1c2c(ccc(O)c2O)CN1N1Cc2ccc(O)c(O)c2C1=O [XZ48]
- viral yield (in words) (HSV-1 KOS virus): significant reductions in viral yield

Structure (SMILES): O=C(NN1Cc2ccc(O)c(O)c2C1=O)c1cccc(O)c1O [XZ49]
- viral yield (in words) (HSV-1 KOS virus): significant reductions in viral yield

Structure (SMILES): O=C1c2c(ccc(O)c2O)CN1N1C(=O)c2ccc(O)c(O)c2C1=O [XZ50]
- viral yield (in words) (HSV-1 KOS virus): significant reductions in viral yield

Structure (SMILES): [N-]=[N+]=NCc1cccc(CN2Cc3ccc(O)c(O)c3C2=O)c1 [XZ99]
- viral yield (in words) (HSV-1 KOS virus): significant reductions in viral yield

Structure (SMILES): [N-]=[N+]=NCc1cccc(CN2C(=O)c3ccc(O)c(O)c3C2=O)c1 [XZ100]
- viral yield (in words) (HSV-1 KOS virus): significant reductions in viral yield
